Test results reported in the supplement of paper PMC5908809.

What was measured:
Assay in all cases: relative IC50 (inflection point of fitted viability curve, relative to fitted max inhibition); higher = less sensitive
Conditions in all cases: 72 h
[1] = test system: NK-YS (IL-2 2.5 ng/mL)
Protocol: (§1)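 Drug sensitivity and resistance testing: 5 concentrations over a 10,000-fold range, 72 h at 37 °C, viability by CellTiter-Glo normalised to DMSO and benzethonium chloride controls. IC50 is the inflection point of a logistic fit (min fixed at 0, max fitted), so it is relative to the fitted maximal inhibition. Kept only where fitted max inhibition is at least 50%.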

[2] = test system: DERL-7 (IL-2 2.5 ng/mL)
Protocol: as §1

[3] = test system: NK-92 (IL-2 2.5 ng/mL)
Protocol: as §1

[4] = test system: KHYG-1 (IL-2 2.5 ng/mL)
Protocol: as §1

[5] = test system: KAI3 (IL-2 2.5 ng/mL)
Protocol: as §1

[6] = test system: YT (IL-2 2.5 ng/mL)
Protocol: as §1

[7] = test system: NKL (IL-2 2.5 ng/mL)
Protocol: as §1

[8] = test system: normal primary NK cells, pool 1 (3 donors), resting (IL-2 0 ng/mL)
Protocol: as §1

[9] = test system: SNK-6 (IL-2 2.5 ng/mL)
Protocol: as §1

[10] = test system: IMC-1 (IL-2 20 ng/mL)
Protocol: as §1

[11] = test system: normal primary NK cells, pool 2 (3 donors) (IL-2 2.5 ng/mL)
Protocol: as §1

[12] = test system: normal primary NK cells, pool 3 (3 donors) (IL-2 2.5 ng/mL)
Protocol: as §1

Compound: CC(C)n1nc(-c2ccc3oc(N)nc3c2)c2c(N)ncnc21 [INK128]
- relative IC50 [1]: 0.051 µM
- relative IC50 [2]: 0.0151 µM
- relative IC50 [3]: 0.0217 µM
- relative IC50 [4]: 0.124 µM
- relative IC50 [5]: 0.0228 µM
- relative IC50 [6]: 0.0282 µM
- relative IC50 [7]: 0.00891 µM

Compound: Clc1ccccc1C(c1ccccc1)(c1ccccc1)n1cccn1 [TRAM-34]
- relative IC50 [8]: > 1 µM

Compound: CON(C)C(=O)N1N=C(c2cc(F)ccc2F)S[C@@]1(CCCN)c1ccccc1 [ARRY-520]
- relative IC50 [1]: 0.00386 µM
- relative IC50 [2]: 0.00314 µM
- relative IC50 [8]: > 1 µM
- relative IC50 [3]: 0.0102 µM
- relative IC50 [4]: 0.00325 µM
- relative IC50 [6]: 0.0229 µM
- relative IC50 [9]: 0.00257 µM
- relative IC50 [7]: 0.00525 µM

Compound: CO[C@H]1C[C@@H]2CC[C@@H](C)[C@@](O)(O2)C(=O)C(=O)N2CCCC[C@H]2C(=O)O[C@H]([C@H](C)C[C@@H]2CC[C@@H](O)[C@H](OC)C2)CC(=O)[C@H](C)/C=C(\C)[C@@H](O)[C@@H](OC)C(=O)[C@H](C)C[C@H](C)/C=C/C=C/C=C/1C [Sirolimus]
- relative IC50 [1]: 0.00101 µM
- relative IC50 [2]: 0.005 µM
- relative IC50 [4]: 0.00655 µM
- relative IC50 [5]: 0.00241 µM
- relative IC50 [9]: 0.0008 µM
- relative IC50 [7]: 0.0003 µM

Compound: Nc1cccc2c1C(=O)N(C1CCC(=O)NC1=O)C2=O (stereo not given) [Pomalidomide]
- relative IC50 [1]: > 10 µM
- relative IC50 [8]: > 10 µM
- relative IC50 [3]: > 10 µM
- relative IC50 [4]: > 10 µM
- relative IC50 [5]: > 10 µM
- relative IC50 [6]: > 10 µM
- relative IC50 [10]: > 10 µM

Compound: Cc1c(NC(=O)OC[C@@H]2COCCN2)cn2ncnc(Nc3ccc4c(cnn4Cc4cccc(F)c4)c3)c12
- relative IC50 [2]: 2.73 µM
- relative IC50 [8]: 3.97 µM
- relative IC50 [3]: 2.4 µM
- relative IC50 [4]: 2.23 µM
- relative IC50 [5]: 3.18 µM
- relative IC50 [11]: 3.09 µM
- relative IC50 [7]: 3.11 µM

Compound: Cc1cn(-c2cc(NC(=O)c3ccc(C)c(Nc4nccc(-c5cccnc5)n4)c3)cc(C(F)(F)F)c2)cn1 [Nilotinib]
- relative IC50 [12]: > 10 µM
- relative IC50 [7]: 0.869 µM

Compound: CS(=O)(=O)c1ccc(C2=C(c3ccccc3)C(=O)OC2)cc1 [Rofecoxib]
- relative IC50 [8]: > 10 µM
- relative IC50 [12]: > 10 µM

Compound: O=C(Nc1c[nH]nc1-c1nc2ccc(CN3CCOCC3)cc2[nH]1)NC1CC1 [AT9283]
- relative IC50 [1]: 0.0419 µM
- relative IC50 [2]: 0.0411 µM
- relative IC50 [8]: > 1 µM
- relative IC50 [3]: 0.0658 µM
- relative IC50 [4]: 0.0472 µM
- relative IC50 [5]: 0.0698 µM
- relative IC50 [6]: 0.135 µM
- relative IC50 [9]: 0.0397 µM
- relative IC50 [10]: 0.078 µM
- relative IC50 [7]: 0.0854 µM

Compound: O=C(c1cc(Cc2n[nH]c(=O)c3ccccc23)ccc1F)N1CCN(C(=O)C2CC2)CC1 [Olaparib]
- relative IC50 [1]: 1.62 µM
- relative IC50 [3]: 1.56 µM
- relative IC50 [4]: 2.02 µM
- relative IC50 [5]: 1.26 µM
- relative IC50 [9]: 1.67 µM
- relative IC50 [10]: 1.61 µM
- relative IC50 [7]: 0.237 µM

Compound: C[C@@H]1COC(Nc2ccc3ncnc(Nc4ccc(OCc5nccs5)c(Cl)c4)c3c2)=N1 [Varlitinib]
- relative IC50 [8]: > 10 µM

Compound: Nc1cccc2c1CN(C1CCC(=O)NC1=O)C2=O (stereo not given) [Lenalidomide]
- relative IC50 [2]: > 100 µM
- relative IC50 [8]: 6.06 µM
- relative IC50 [5]: 17.1 µM
- relative IC50 [9]: 3.46 µM

Compound: COc1cc2nccc(Oc3ccc(NC(=O)NC4CC4)c(Cl)c3)c2cc1C(N)=O [Lenvatinib]
- relative IC50 [9]: > 2.5 µM
- relative IC50 [11]: > 2.5 µM

Compound: O=C(c1cccc(Cl)c1F)N1CCN(Cc2cccc(Nc3nccs3)n2)CC1 [MK-8745]
- relative IC50 [1]: 0.203 µM
- relative IC50 [2]: 0.376 µM
- relative IC50 [12]: > 2.5 µM
- relative IC50 [9]: 0.204 µM
- relative IC50 [10]: 0.709 µM
- relative IC50 [11]: > 2.5 µM
